Two molecules from PMC8691691 (ACS Chemical Neuroscience, 2021) can be followed below.

Where a chain is given by its changes, count along the chain named. Read-outs that look alike come from different tables or passages of the source.

What all share (test): [3H]glycine transport by GlyT2 mutant in COS7 cells
What all share (format): cell-based

One experiment deals with T1, GlyT2 F478Y mutant (Rattus norvegicus, UniProt P58295, F478Y).
T1 construct: expressed in transfected cells; host or cells: COS7
T1 sequence (P58295 1-799 F478Y): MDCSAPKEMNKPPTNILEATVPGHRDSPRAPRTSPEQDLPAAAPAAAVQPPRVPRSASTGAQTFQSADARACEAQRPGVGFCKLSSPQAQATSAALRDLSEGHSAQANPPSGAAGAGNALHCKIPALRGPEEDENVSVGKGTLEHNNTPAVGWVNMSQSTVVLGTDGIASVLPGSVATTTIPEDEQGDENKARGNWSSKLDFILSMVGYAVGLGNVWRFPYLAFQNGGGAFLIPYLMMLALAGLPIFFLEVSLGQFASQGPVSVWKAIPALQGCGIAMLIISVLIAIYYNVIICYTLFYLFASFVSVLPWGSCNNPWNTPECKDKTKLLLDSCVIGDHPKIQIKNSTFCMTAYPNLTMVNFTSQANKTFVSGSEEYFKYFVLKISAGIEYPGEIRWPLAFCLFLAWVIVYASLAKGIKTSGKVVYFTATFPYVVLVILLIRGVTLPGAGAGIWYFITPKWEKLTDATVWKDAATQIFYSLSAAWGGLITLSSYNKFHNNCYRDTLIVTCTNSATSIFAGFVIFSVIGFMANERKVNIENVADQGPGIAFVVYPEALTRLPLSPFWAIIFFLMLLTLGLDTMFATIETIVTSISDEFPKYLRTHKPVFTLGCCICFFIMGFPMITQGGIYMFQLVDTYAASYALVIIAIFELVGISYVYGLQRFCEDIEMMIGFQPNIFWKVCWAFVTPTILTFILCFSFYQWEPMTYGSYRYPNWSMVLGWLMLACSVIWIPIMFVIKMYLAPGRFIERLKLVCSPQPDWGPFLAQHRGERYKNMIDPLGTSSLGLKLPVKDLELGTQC
The text has this: (§1) To validate the predicted interactions between the inhibitors and GlyT2, we used systematic site-directed mutagenesis to construct substitution mutants of the potential residues involved in ligand binding. […] The GlyT2 residues predicted to interact with the inhibitors through its side chain were replaced by amino acids expected to force the loss of the interaction. In the cases where the interaction occurred through the backbone, the inserted amino acid sought to alter the disposition of the substituted residue to lose the coordination.
(§2) Substitution mutants were generated with the QuikChange II Site-Directed Mutagenesis kit (Agilent Technologies, Santa Clara, CA, USA), using rGlyT2 or rGlyT1 subcloned in pCDNA3.[47] The complete coding region of all of the constructs was sequenced to verify that only the desired mutation had been introduced. […] COS7 cells were grown and transfected using Turbofect Transfection Reagent (Thermo Fisher Scientific, Waltham, MA, USA), following the manufacturer’s protocol (2 μL reagent/μg of DNA). Cells were incubated for 48 h at 37 °C until used.
(§3) At the end of the desired time (usually 10 min), reactions were washed and terminated by aspiration. […] A nonlinear curve fitting method was used to obtain IC50 values using Graphpad Prism software, version 6.0, Graphpad, San Diego, CA, USA.

The target of a further experiment is T2, GlyT2 S640C mutant (Rattus norvegicus, UniProt P58295, S640C).
T2 construct: expressed in transfected cells; host or cells: COS7
T2 sequence (P58295 1-799 S640C): T1 sequence (P58295 1-799 F478Y) with Y478F, S640C
The settings on record: read-out: IC50 (Table S1).
From the text: as §1, §2, §3

The target of another experiment is T3, GlyT2 W217F mutant (Rattus norvegicus, UniProt P58295, W217F).
T3 construct: expressed in transfected cells; host or cells: COS7
T3 sequence (P58295 1-799 W217F): T1 sequence (P58295 1-799 F478Y) with W217F, Y478F
From the text: as §1, §2, §3

A word on the IC50: it is the midpoint of a concentration-inhibition curve. As for `N[C@@H](COC(c1cccc(F)c1)c1ccccc1OCc1ccccc1)C(=O)O` (stereo partly shown) [ALX1393], the figures for the IC50 on GlyT2 F478Y mutant (read-out: IC50 (Table S1)), on GlyT2 S640C mutant and at GlyT2 W217F mutant (read-out: IC50 (Table S1)) were 50 ± 5 nM, 30 ± 7 nM and 23 ± 5 nM, respectively.
Turning to `COc1cc(C(=O)NCC2(N(C)C)CCCC2)cc(OC)c1OCc1ccccc1` [ORG25543, N-[[1-(dimethylamino)cyclopentyl]methyl]-3,5-dimethoxy-4-(phenylmethoxy)benzamide], the IC50 against GlyT2 F478Y mutant was determined as 19 ± 7 nM; on GlyT2 S640C mutant, 130 ± 6 nM; at GlyT2 W217F mutant it was 93 ± 7 nM. In addition, the “effect of mutation on inhibition of glycine transport” value at GlyT2 W217F mutant (W217F, 1 μM inhibitor, 20 μM glycine) is reported as “selectively reduced ORG25543 inhibition”.
